Where two headings read alike, the source gives them in different places.
Key:
CDK7 = target: T1, CDK7 (Homo sapiens, UniProt P50613); experiment: Radiometric protein kinase assay (PanQinase; 410-kinase panel and 28 CDK titration); type: biochemical; settings: ATP at apparent ATP-Km
T1 construct: purchased Reaction Biology (Freiburg, Germany), assay service
Procedure: (§1) A radiometric protein kinase assay service was provided by Reaction Biology (Freiburg, Germany) to measure the kinase activity of 410 protein kinases and 28 CDKs.
In the kinase inhibition assay, the residual activity for each compound was calculated using the following formula: Residual activity (%) = 100 × [(signal of compound − low control)/(high control − low control)]. The selectivity score of the compound at the tested concentrations was calculated for residual activity < 50%, that is, inhibition of >50%. The selectivity score for a particular compound at a particular concentration was calculated using the following formula: Selectivity score = (count of data points < 50%)/(total number of data points).
(§2) In the 28 CDK titration assay, the residual activity and IC50 values of the compound were calculated using the Quattro Workflow V3.1.1 (Quattro Research GmbH, Munich, Germany). The ATP concentration used in each kinase reaction was set to the apparent ATP-Km value. Dose-response curve fitting was performed using a four-parameter logistic regression model in GraphPad Prism 10.4.1 (GraphPad Software, Boston, MA, USA).

[1] = target: T2, recombinant CDK7/cyclin H/MAT1 (CAK) trimeric complex (Homo sapiens, UniProt P50613); experiment: Covalent binding site evaluation by mass spectrometry; settings: incubated 1 hour with CAK complex, Arg-C or Arg-C/trypsin digestion
T2 construct: purchased Thermo Fisher Scientific PV3868
Procedure: The recombinant CAK complex (CDK7/cyclin H/MAT1; Thermo Fisher Scientific, PV3868) was incubated with Q901 or DMSO for 1 hour at room temperature (RT), and the reaction complexes were resolved by SDS–polyacrylamide gel electrophoresis (PAGE). The bands corresponding to CDK7 were excised for in-gel digestion. Denaturation, reduction, and alkylation were performed using 8 M urea, TCEP, and iodoacetamide at RT, followed by Arg-C digestion (1:100 Arg-C:protein ratio, at 37°C for 18 hours) and Arg-C/trypsin digestion (1:100 Arg-C:protein ratio and 1:50 trypsin:protein ratio, at 37°C for 18 hours). The extracted peptides were loaded and eluted using a high-performance liquid chromatography (HPLC) system and then separated through a linear gradient (3 to 60% mobile phase B in 120 min) at a flow rate of 0.3 μl/min using EASY-Spray HPLC Columns (75 μm/500 mm) (Thermo Fisher Scientific, ES903) at 40°C and introduced into an Orbitrap Exploris 240 LC-MS/MS System (Thermo Fisher Scientific, BRE725535) in positive ion mode and run in data-independent acquisition (DIA) mode. Data acquisition was performed over a mass/charge ratio (m/z) range of 390 to 1010, and peak integrations for fragment ions of the most intense charge state of the doubly carbamidomethylated Cys^312-containing peptide were analyzed using the Skyline software 24.1 (Seattle, WA, USA). […]

HCT116 cells = experiment: HCT116 cell viability, single agent and combination (SynergyFinder, ATP Lite); type: cell-based; settings: Homo sapiens, HCT-116; 72 hours, alone
Procedure: (§3) SynergyFinder was performed by Oncolines (Oss, Netherlands). […] The absolute IC5_0 values were determined from the dose-response curves generated in XL-fit 5 using the four-parameter logistic equation: fit = A + ((B − A)/{1 + [(C/x)^D]}), where A and B represent the bottom and top plateaus of the curve, C is the IC5_0 value, x is the compound concentration, and D is the Hill slope.

HCT116 xenograft = experiment: HCT116 cell line-derived xenograft efficacy; type: in vivo, BALB/c nude mice; settings: by day 28; T-DXd 10 mg/kg single iv, Q901 10 mg/kg ip once daily
Procedure: BALB/c nude mice were purchased from the Shanghai SIPPR/BK Laboratory Animal Co. Ltd. (Shanghai, China). For in vivo efficacy studies, HCT116 cells or H292 cells were resuspended in PBS and Matrigel (1:1) and implanted subcutaneously. […] Tumor volumes were measured twice weekly after randomization in two dimensions, using a caliper. The TGI was calculated for each group using the formula: TGI (%) = [1 − (Ti − T0)/(Vi − V0)] × 100, where Ti is the average tumor volume of the treatment group on the given day, T0 is the average tumor volume of the treatment group on the day when the treatment was started, Vi is the average tumor volume of the vehicle control group on the same day with Ti, and V0 is the average tumor volume of the vehicle group on the day of treatment start. Statistical significance was calculated using a two-way analysis of variance (ANOVA) followed by Tukey’s multiple comparison test in GraphPad Prism 10.4.1.

H292 cells = experiment: H292 cell viability, single agent and combination (SynergyFinder, ATP Lite); type: cell-based; settings: 72 hours
Procedure: as §3

other CDKs = experiment: Radiometric 28 CDK titration assay, selectivity over other CDKs; type: biochemical; settings: ranging from 242-fold to over 1000-fold
Procedure: as §1, §2

CDK9 = target: T3, CDK9 (Homo sapiens, UniProt P50750); experiment: Radiometric 28 CDK titration assay; type: biochemical
T3 construct: purchased Reaction Biology (Freiburg, Germany), assay service
Procedure: as §1, §2

CDK12 = target: T4, CDK12 (Homo sapiens, UniProt Q9NYV4); experiment: Radiometric 28 CDK titration assay; type: biochemical
T4 construct: purchased Reaction Biology (Freiburg, Germany), assay service
Procedure: as §1, §2

CDK13 = target: T5, CDK13 (Homo sapiens, UniProt Q14004); experiment: Radiometric 28 CDK titration assay; type: biochemical
T5 construct: purchased Reaction Biology (Freiburg, Germany), assay service
Procedure: as §1, §2

CDK8 = target: T6, CDK8 (Homo sapiens, UniProt P49336); experiment: Radiometric 28 CDK titration assay; type: biochemical
T6 construct: purchased Reaction Biology (Freiburg, Germany), assay service
Procedure: as §1, §2

H292 xenograft = experiment: H292 cell line-derived xenograft efficacy; type: in vivo, BALB/c nude mice; settings: for tumor growth inhibition (TGI): by day 28
Procedure: BALB/c nude mice were purchased from the Shanghai SIPPR/BK Laboratory Animal Co. Ltd. (Shanghai, China). For in vivo efficacy studies, HCT116 cells or H292 cells were resuspended in PBS and Matrigel (1:1) and implanted subcutaneously. When tumors reached an average size of 117 mm^3 (HCT116) or 140 mm^3 (H292), mice were randomized into four groups (n = 8 per group) and treated with Q901 (3 or 10 mg/kg, intraperitoneally once daily), T-DXd (10 mg/kg, single intravenous administration on day 0), SG (3 mg/kg, single intravenous administration on days 1 and 8), or a combination thereof. Tumor volumes were measured twice weekly after randomization in two dimensions, using a caliper. The TGI was calculated for each group using the formula: TGI (%) = [1 − (Ti − T0)/(Vi − V0)] × 100, where Ti is the average tumor volume of the treatment group on the given day, T0 is the average tumor volume of the treatment group on the day when the treatment was started, Vi is the average tumor volume of the vehicle control group on the same day with Ti, and V0 is the average tumor volume of the vehicle group on the day of treatment start. Statistical significance was calculated using a two-way analysis of variance (ANOVA) followed by Tukey’s multiple comparison test in GraphPad Prism 10.4.1.

[2] = target: T7, recombinant human CDK7/cyclin H/MNAT1 (Homo sapiens, UniProt P50613); experiment: LANCE Ultra TR-FRET CDK7 kinase assay (cell-free enzymatic assay); type: biochemical; settings: eight-point dilution, top 3000 nM, read-out: IC50 against CDK7
T7 construct: His-tag; purchased Invitrogen PR6749B
Procedure: CDK7 kinase activity was measured using a LANCE Ultra TR-FRET kinase assay (Revvity, formerly PerkinElmer, Waltham, MA, USA) according to the manufacturer’s protocol. Briefly, recombinant human CDK7/cyclin H/MNAT1 His-tag protein (Invitrogen, PR6749B) was incubated with compounds (Q901, Q901R, and QS0551508) in kinase buffer in a 384-well format. The assay used a ULight-labeled peptide substrate and a europium-labeled anti-phospho antibody for time-resolved fluorescence resonance energy transfer (TR-FRET) detection.
TR-FRET signals were measured using an EnVision multimode plate reader (Revvity, EnVision 2105 Alpha) with LANCE/DELFIA detection settings.
Compounds were tested using an eight-point serial dilution (top concentration: 3000 nM, 1:4 dilution). Signals were normalized to DMSO-treated controls to calculate residual kinase activity (%), and dose-response curves were generated using GraphPad Prism 10.4.1.

MCF-7 cells = experiment: MCF-7 cell viability (ATP Lite system); type: cell-based; settings: Homo sapiens, MCF7, read-out: IC50 MCF-7 cell growth
Procedure: Fig. 2. Q901 alters RNAPII phosphorylation and transcriptional activity. (A) MCF-7 cells were treated with Q901 at the indicated concentrations for 72, 96, or 120 hours. Cell viability was measured using the ATP Lite system. Inhibition (%) was plotted against the log-transformed Q901 concentration (μM) (n = 3 to 4). Data represent means ± SD. (B and C) RNAPII ChIP-seq was performed following treatment with 100 nM Q901 for the indicated duration. (B) Volcano plot of pan RNAPII ChIP-seq signals after Q901 treatment [n = 2; blue dot indicates P value ≤ 0.05 and log2 fold change (log2FC) ≤ −0.58; red dot indicates P value ≤ 0.05 and log2FC ≥ 0.58]. […] CDK7 ChIP-seq was performed with 100 nM Q901 for the indicated durations.
Cells were seeded into 96-well plates and treated with compounds at the indicated concentrations and time points. After incubation, cell viability was measured using either CellTiter-Glo luminescent cell viability assay (Promega, Madison, WI, USA, G7572) according to the manufacturer’s instructions. Plates were equilibrated to RT for 30 min before adding 50 μl of CellTiter-Glo reagent to each well. Luminescence was measured using the EnVision Multi Label Reader (PerkinElmer, Waltham, MA, USA). Dose-response curves were fitted using a nonlinear regression model with a sigmoidal dose-response function in GraphPad Prism 10.4.1. The absolute IC5_0 values were calculated using the dose-response curves generated in XL-fit 5 (IDBS Software, Woking, UK) and fitted with the four-parameter logistic equation: fit = A + ((B − A)/{1 + [(C/x)^D]}), where A and B represent the bottom and top plateaus of the curve, respectively, C is the IC5_0 value, x is the compound concentration, and D is the Hill slope.

[3] = first regimen: SG 3 mg/kg, Q901 10 mg/kg
[4] = second regimen: SG 10 mg/kg, Q901 3 mg/kg

T1 sequence (P50613 whole entry): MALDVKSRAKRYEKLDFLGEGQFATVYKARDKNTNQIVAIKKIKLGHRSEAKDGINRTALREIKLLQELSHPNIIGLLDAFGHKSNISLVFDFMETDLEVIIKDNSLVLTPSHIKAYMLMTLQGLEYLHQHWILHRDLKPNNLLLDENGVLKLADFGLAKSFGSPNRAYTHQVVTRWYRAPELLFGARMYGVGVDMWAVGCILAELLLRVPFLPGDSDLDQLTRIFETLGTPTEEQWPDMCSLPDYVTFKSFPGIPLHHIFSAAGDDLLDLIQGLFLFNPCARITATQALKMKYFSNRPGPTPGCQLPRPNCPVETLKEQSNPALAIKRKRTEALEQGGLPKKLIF
T1 sequence (P51946 whole entry partner): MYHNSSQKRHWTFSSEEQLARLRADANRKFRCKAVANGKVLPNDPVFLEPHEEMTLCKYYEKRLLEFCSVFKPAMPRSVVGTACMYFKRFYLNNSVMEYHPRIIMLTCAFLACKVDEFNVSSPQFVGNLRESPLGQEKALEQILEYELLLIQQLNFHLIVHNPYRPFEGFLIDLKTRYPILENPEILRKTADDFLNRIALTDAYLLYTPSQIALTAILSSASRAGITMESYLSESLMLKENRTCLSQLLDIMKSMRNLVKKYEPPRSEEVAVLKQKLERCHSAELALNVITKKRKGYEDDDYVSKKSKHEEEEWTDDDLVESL
T1 sequence (P51948 whole entry partner): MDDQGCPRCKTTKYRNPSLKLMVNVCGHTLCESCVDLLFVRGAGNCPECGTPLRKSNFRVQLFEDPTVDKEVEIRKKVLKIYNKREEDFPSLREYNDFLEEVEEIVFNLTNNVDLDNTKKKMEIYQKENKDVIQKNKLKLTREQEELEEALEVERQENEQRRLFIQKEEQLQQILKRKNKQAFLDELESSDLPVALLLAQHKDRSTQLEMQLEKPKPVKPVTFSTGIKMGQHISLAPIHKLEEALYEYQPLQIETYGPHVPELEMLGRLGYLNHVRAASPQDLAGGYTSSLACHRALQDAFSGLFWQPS
T6 sequence (P49336 whole entry): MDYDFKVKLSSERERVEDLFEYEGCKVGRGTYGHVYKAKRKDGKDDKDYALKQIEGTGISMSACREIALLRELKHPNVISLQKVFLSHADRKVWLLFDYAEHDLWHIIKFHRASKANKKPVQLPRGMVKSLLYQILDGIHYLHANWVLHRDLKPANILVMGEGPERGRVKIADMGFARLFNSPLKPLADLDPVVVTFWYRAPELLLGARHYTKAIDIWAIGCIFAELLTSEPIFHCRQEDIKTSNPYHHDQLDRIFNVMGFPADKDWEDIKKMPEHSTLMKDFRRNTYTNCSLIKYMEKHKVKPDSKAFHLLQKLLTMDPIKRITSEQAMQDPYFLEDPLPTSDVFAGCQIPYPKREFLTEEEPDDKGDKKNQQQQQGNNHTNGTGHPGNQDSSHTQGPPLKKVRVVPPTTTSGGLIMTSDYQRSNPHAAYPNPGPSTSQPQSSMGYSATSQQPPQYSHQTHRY
T6 sequence (P24863 whole entry partner): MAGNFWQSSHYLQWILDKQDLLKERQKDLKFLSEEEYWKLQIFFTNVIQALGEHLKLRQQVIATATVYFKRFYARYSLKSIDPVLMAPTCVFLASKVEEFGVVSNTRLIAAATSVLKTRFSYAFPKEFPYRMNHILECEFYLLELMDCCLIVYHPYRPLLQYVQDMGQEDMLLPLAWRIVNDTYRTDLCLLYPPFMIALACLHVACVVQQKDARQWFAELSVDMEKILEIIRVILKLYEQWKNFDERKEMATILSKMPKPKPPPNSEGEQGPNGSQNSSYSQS
T7 sequence (P50613 whole entry): as the sequence (P50613 whole entry) above
T7 sequence (P51946 whole entry partner): as the sequence (P51946 whole entry partner) above
T7 sequence (P51948 whole entry partner): as the sequence (P51948 whole entry partner) above
T2 sequence (P50613 whole entry): as the sequence (P50613 whole entry) above
T2 sequence (P51946 whole entry partner): as the sequence (P51946 whole entry partner) above
T2 sequence (P51948 whole entry partner): as the sequence (P51948 whole entry partner) above
T3 sequence (P50750 whole entry): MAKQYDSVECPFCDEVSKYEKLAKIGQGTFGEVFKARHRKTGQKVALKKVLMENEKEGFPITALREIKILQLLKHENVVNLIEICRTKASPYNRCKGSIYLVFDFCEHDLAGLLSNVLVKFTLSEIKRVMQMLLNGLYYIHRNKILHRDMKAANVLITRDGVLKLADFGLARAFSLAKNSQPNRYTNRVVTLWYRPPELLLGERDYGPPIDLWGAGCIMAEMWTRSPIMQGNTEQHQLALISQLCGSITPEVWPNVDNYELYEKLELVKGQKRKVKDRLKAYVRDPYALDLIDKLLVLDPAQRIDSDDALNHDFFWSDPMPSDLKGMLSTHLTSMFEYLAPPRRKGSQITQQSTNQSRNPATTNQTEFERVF
T3 sequence (O60563 whole entry partner): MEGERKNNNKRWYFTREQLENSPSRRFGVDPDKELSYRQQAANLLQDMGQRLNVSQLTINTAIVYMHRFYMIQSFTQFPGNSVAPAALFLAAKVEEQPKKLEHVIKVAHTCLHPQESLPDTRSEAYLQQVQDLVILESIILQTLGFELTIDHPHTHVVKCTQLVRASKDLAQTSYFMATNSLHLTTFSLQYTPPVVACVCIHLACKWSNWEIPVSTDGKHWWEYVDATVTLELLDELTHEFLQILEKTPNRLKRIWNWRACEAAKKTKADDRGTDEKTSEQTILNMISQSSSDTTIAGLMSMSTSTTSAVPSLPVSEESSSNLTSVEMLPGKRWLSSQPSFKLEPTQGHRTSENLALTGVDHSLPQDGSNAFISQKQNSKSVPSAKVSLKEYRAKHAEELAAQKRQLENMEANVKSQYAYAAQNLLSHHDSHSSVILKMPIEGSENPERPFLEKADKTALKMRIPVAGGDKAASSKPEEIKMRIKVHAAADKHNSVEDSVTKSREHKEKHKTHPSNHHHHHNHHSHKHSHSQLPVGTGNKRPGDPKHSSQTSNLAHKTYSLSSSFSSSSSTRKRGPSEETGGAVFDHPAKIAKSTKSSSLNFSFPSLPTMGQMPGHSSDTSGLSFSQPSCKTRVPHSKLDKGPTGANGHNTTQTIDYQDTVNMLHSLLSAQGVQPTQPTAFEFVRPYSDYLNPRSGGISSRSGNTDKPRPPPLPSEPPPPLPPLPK

C=C(F)C(=O)Nc1ccc2c(-c3ccccc3CNc3nc(NC[C@H]4CCNC[C@@H]4O)nc4c(C(C)C)cnn34)nccc2c1 [Q901]
inhibition at 1 µM (CDK7; 1 μM, 1 hour): 99% | remaining activity at 1 µM (CDK7; 1 μM, 1 hour, read-out: residual activity value CDK7): 1% | IC50 (CDK7; in vitro): 0.01 µM | reduction of intensity of Cys312-containing peptides (residues 310 to 329 and 310 to 318) [1]: ~99% | IC50 (HCT116 cells): 0.0084 µM | tumor growth inhibition (TGI) (HCT116 xenograft): 81% | IC50 (H292 cells; Homo sapiens, NCI-H292, Single treatment / monotherapy): 0.012 µM | IC50 values for other CDKs higher than that for CDK7 (other CDKs): ≥ 242 fold | fold difference in inhibition of CDK9 compared to CDK7 (CDK9): 715 fold | fold difference in inhibition of CDK12 compared to CDK7 (CDK12): 207 fold | fold difference in inhibition of CDK13 compared to CDK7 (CDK13): 641 fold | fold difference in inhibition of CDK8 compared to CDK7 (CDK8): > 1000 fold | IC50 (CDK8; ATP at apparent ATP-Km): > 10 µM | tumor growth inhibition (TGI) (H292 xenograft; [3]): 80% | tumor growth inhibition (TGI) (H292 xenograft; [4]): 61% | IC50 [2]: 0.0104 µM | IC50 (MCF-7 cells; 72 hours): 0.095 µM | IC50 (MCF-7 cells; 96 hours): 0.016 µM | IC50 (MCF-7 cells; 120 hours): 0.005 µM

sacituzumab govitecan [SG]
H292 IC50 (H292 cells; monotherapy): 0.5 µg/mL | time at which tumors showed regrowth (H292 xenograft; H292 xenograft, SG alone): > 14 days | tumor growth inhibition (TGI) (H292 xenograft; [3]): 47% | tumor growth inhibition (TGI) (H292 xenograft; [4]): 72%
